Experimental data reported in ChEMBL document CHEMBL3758138, “Synthesis and pharmacological evaluation of dehydroabietic acid thiourea derivatives containing bisphosphonate moiety as an inducer of apoptosis” (Eur J Med Chem, 2016).
Activity calls are given as the source filed them. The rule behind the calls is not given here.

What was measured:
[1] = Cytotoxic activity against human Bel7404 cells assessed as inhibition of cell growth after 48 hrs by MTT assay; format: functional, cell-based; conditions: BEL-7404, 48 h
NCI-H460 = assay: Cytotoxic activity against human NCI-H460 cells assessed as inhibition of cell growth after 48 hrs by MTT assay; format: functional, cell-based; conditions: NCI-H460, 48 h
A549 = assay: Cytotoxic activity against human A549 cells assessed as inhibition of cell growth after 48 hrs by MTT assay; format: functional, cell-based; conditions: A549, 48 h
[2] = Cytotoxic activity against human SKOV3 cells assessed as inhibition of cell growth after 48 hrs by MTT assay; format: functional, cell-based; conditions: SK-OV-3, 48 h
[3] = biological target: Cyclin-dependent kinase 2/cyclin E1 (Homo sapiens, UniProt P24941); assay: Inhibition of human recombinant C-terminal His6-tagged full length human Cdk2/human recombinant N-terminal GST-tagged full-length Cyclin E using histone H1 substrate after 40 mins by radiometric filter binding assay; format: protein-complex assay
[4] = Cytotoxic activity against human HCT116 cells assessed as inhibition of cell growth after 48 hrs by MTT assay; format: functional, cell-based; conditions: HCT-116, 48 h
SK-OV-3 [5] = assay: Induction of apoptosis in human SKOV3 cells assessed as reduction in caspase-8 level in cytoplasm at 5 uM after 12 to 24 hrs by Western blot analysis; format: functional, cell-based
[6] = Cell cycle arrest in human SKOV3 cells assessed as accumulation at G1 phase at 3 uM after 24 hrs by propidium iodide staining based flow cytometry (reference value: 53.38%); format: functional; conditions: SK-OV-3
SK-OV-3 [7] = assay: Induction of apoptosis in human SKOV3 cells assessed as early apoptotic cells at 5 uM after 12 hrs by Annexin V-FITC/PI staining based flow cytometry (reference value: 2.8%); format: functional
SK-OV-3 [8] = assay: Induction of apoptosis in human SKOV3 cells assessed as increase in chromatin condensation at 5 uM after 24 hrs by Hoechst 33258 staining based fluorescence microscopic analysis; format: functional, cell-based
[9] = Cell cycle arrest in human SKOV3 cells assessed as accumulation at S phase at 5 uM after 24 hrs by propidium iodide staining based flow cytometry (reference value: 37.77%); format: functional; conditions: SK-OV-3
SK-OV-3 [10] = assay: Induction of apoptosis in human SKOV3 cells after 12 hrs by Annexin V-FITC/PI staining based flow cytometry; format: functional, cell-based
SK-OV-3 [11] = assay: Induction of apoptosis in human SKOV3 cells assessed as depolarization of mitochondria at 5 uM after 12 to 24 hrs by JC-1 dye based fluorescence microscopic analysis; format: functional
[12] = Cell cycle arrest in human SKOV3 cells assessed as accumulation at G2 phase at 5 uM after 24 hrs by propidium iodide staining based flow cytometry (reference value: 8.85%); format: functional; conditions: SK-OV-3
SK-OV-3 [13] = assay: Induction of apoptosis in human SKOV3 cells assessed as late apoptotic cells at 5 uM after 12 hrs by Annexin V-FITC/PI staining based flow cytometry (reference value: 1.5%); format: functional
[14] = Cell cycle arrest in human SKOV3 cells assessed as accumulation at G1 phase at 5 uM after 24 hrs by propidium iodide staining based flow cytometry (reference value: 53.38%); format: functional; conditions: SK-OV-3
SK-OV-3 [15] = assay: Induction of apoptosis in human SKOV3 cells assessed as caspase-9 cleavage at 5 uM after 12 to 24 hrs by Western blot analysis; format: functional, cell-based
SK-OV-3 [16] = assay: Induction of apoptosis in human SKOV3 cells assessed as early apoptotic cells at 3 uM after 12 hrs by Annexin V-FITC/PI staining based flow cytometry (reference value: 2.8%); format: functional
[17] = Downregulation of Bcl-2 protein expression in human SKOV3 cells after 12 to 24 hrs by Western blot analysis; format: functional, cell-based; conditions: SK-OV-3
SK-OV-3 [18] = assay: Induction of apoptosis in human SKOV3 assessed as loss of membrane integrity at 5 uM after 12 to 24 hrs by AO/EB staining based fluorescence microscopic analysis; format: functional
SK-OV-3 [19] = assay: Induction of apoptosis in human SKOV3 cells assessed as increase in cytochrome c level in cytosol at 5 uM after 12 to 24 hrs by Western blot analysis; format: functional, cell-based
SK-OV-3 [20] = assay: Induction of ROS generation in human SKOV3 cells at 5 uM after 24 hrs by DCF-DA dye based flow cytometry (reference value: 12.9%); format: functional
SK-OV-3 [21] = assay: Induction of Fas protein expression in human SKOV3 cells after 12 to 24 hrs by Western blot analysis; format: functional, cell-based
SK-OV-3 [22] = assay: Induction of ROS generation in human SKOV3 cells at 5 uM after 12 hrs by DCF-DA dye based flow cytometry (reference value: 12.9%); format: functional
SK-OV-3 [23] = assay: Induction of apoptosis in human SKOV3 cells assessed as caspase-9 activity by Ac-LEHD-pNA based spectrophotometric analysis; format: functional, cell-based; conditions: TDE = time-dependent effect
[24] = Cell cycle arrest in human SKOV3 cells assessed as accumulation at S phase at 3 uM after 24 hrs by propidium iodide staining based flow cytometry (reference value: 37.77%); format: functional; conditions: SK-OV-3
[25] = Cell cycle arrest in human SKOV3 cells assessed as accumulation at G2 phase at 3 uM after 24 hrs by propidium iodide staining based flow cytometry (reference value: 8.85%); format: functional; conditions: SK-OV-3
SK-OV-3 [26] = assay: Induction of apoptosis in human SKOV3 cells assessed as caspase-3 cleavage at 5 uM after 12 to 24 hrs by Western blot analysis; format: functional, cell-based
[27] = Upregulation of Bax protein expression in human SKOV3 cells at 5 uM after 12 to 24 hrs by Western blot analysis; format: functional, cell-based; conditions: SK-OV-3
SK-OV-3 [28] = assay: Induction of apoptosis in human SKOV3 cells assessed as caspase-3 activity by Ac-DEVD-pNA based spectrophotometric analysis; format: functional, cell-based; conditions: TDE = time-dependent effect
SK-OV-3 [29] = assay: Induction of apoptosis in human SKOV3 cells assessed as late apoptotic cells at 3 uM after 12 hrs by Annexin V-FITC/PI staining based flow cytometry (reference value: 1.5%); format: functional
SK-OV-3 [30] = assay: Induction of ROS generation in human SKOV3 cells at 5 uM after 12 hrs by DCF-DA dye based flow cytometry relative to control; format: functional

## CCOP(=O)(OCC)C(CNc1ccc(S(=O)(=O)c2ccc(NC(=S)NC(=O)[C@]3(C)CCC[C@]4(C)c5ccc(C(C)C)cc5CC[C@@H]34)cc2)cc1)P(=O)(OCC)OCC
[1]
  IC50: 32.2 µM
NCI-H460
  IC50: 32.7 µM
A549
  IC50: 41.9 µM
[2]
  IC50: 53.9 µM
[3]
  IC50: 0.65 µM
[4]
  IC50: 56 µM

## O=c1[nH]cc(F)c(=O)[nH]1 [FLUOROURACIL]
[1]
  IC50: 30.2 µM
NCI-H460
  IC50: 35.5 µM
[2]
  IC50: 22.4 µM
[4]
  IC50: 24.6 µM

## CCOP(=O)(OCC)C(CNc1ccc(F)cc1NC(=S)NC(=O)[C@]1(C)CCC[C@]2(C)c3ccc(C(C)C)cc3CC[C@@H]12)P(=O)(OCC)OCC
SK-OV-3 [5]
  Activity: Active
[1]
  IC50: 7.1 µM
NCI-H460
  IC50: 8.17 µM
[6]
  Activity: 59.8%
SK-OV-3 [7]
  Activity: 24.7%
SK-OV-3 [8]
  Activity: Dose-dependent effect
[9]
  Activity: 21.4%
SK-OV-3 [10]
  Activity: Dose-dependent effect
SK-OV-3 [11]
  Activity: Active
[12]
  Activity: 10.5%
SK-OV-3 [13]
  Activity: 5.7%
[14]
  Activity: 68.1%
SK-OV-3 [15]
  Activity: Active
SK-OV-3 [16]
  Activity: 14.5%
[17]
  Activity: Dose-dependent effect
A549
  IC50: 6.93 µM
SK-OV-3 [18]
  Activity: Active
SK-OV-3 [19]
  Activity: Active
SK-OV-3 [20]
  Activity: 49.3%
[2]
  IC50: 1.79 µM
SK-OV-3 [21]
  Activity: Dose-dependent effect
SK-OV-3 [22]
  Activity: 33.6%
SK-OV-3 [23]
  Activity: tde
[24]
  Activity: 26.9%
[25]
  Activity: 13.4%
SK-OV-3 [26]
  Activity: Active
[27]
  Activity: Dose-dependent effect
SK-OV-3 [28]
  Activity: tde
[3]
  IC50: 0.13 µM
SK-OV-3 [29]
  Activity: 14.4%
SK-OV-3 [30]
  fold change (FC): 2
[4]
  IC50: 6.01 µM

## CCOP(=O)(OCC)C(CNc1cccc(NC(=S)NC(=O)[C@]2(C)CCC[C@]3(C)c4ccc(C(C)C)cc4CC[C@@H]23)c1C)P(=O)(OCC)OCC
[1]
  IC50: 11.9 µM
NCI-H460
  IC50: 14.2 µM
A549
  IC50: 15.7 µM
[2]
  IC50: 17.3 µM
[3]
  IC50: 5.98 µM
[4]
  IC50: 11.9 µM

## CCOP(=O)(OCC)C(CNc1cc(C)c(C)cc1NC(=S)NC(=O)[C@]1(C)CCC[C@]2(C)c3ccc(C(C)C)cc3CC[C@@H]12)P(=O)(OCC)OCC
[1]
  IC50: 12.7 µM
NCI-H460
  IC50: 28.3 µM
A549
  IC50: 13.8 µM
[2]
  IC50: 19.5 µM
[3]
  IC50: 2.56 µM
[4]
  IC50: 13.1 µM

## CCOP(=O)(OCC)C(CNc1ccc(NC(=S)NC(=O)[C@]2(C)CCC[C@]3(C)c4ccc(C(C)C)cc4CC[C@@H]23)cc1)P(=O)(OCC)OCC
[1]
  IC50: 12.1 µM
NCI-H460
  IC50: 13 µM
A549
  IC50: 15.9 µM
[2]
  IC50: 16.6 µM
[3]
  IC50: 17.8 µM
[4]
  IC50: 12.2 µM

## CCOP(=O)(OCC)C(CNc1ccc(Cc2ccc(NC(=S)NC(=O)[C@]3(C)CCC[C@]4(C)c5ccc(C(C)C)cc5CC[C@@H]34)cc2)cc1)P(=O)(OCC)OCC
[1]
  IC50: 35.9 µM
NCI-H460
  IC50: 37.6 µM
A549
  IC50: 33.6 µM
[2]
  IC50: 28.9 µM
[3]
  IC50: 29.5 µM
[4]
  IC50: 25.5 µM

## CC(C)c1ccc2c(c1)CC[C@H]1[C@](C)(C(=O)O)CCC[C@]21C [DEHYDROABIETIC ACID]
[1]
  IC50: 28.7 µM
NCI-H460
  IC50: 75 µM
A549
  IC50: 55.6 µM
[2]
  IC50: 65.1 µM
[3]
  IC50: 36.3 µM
[4]
  IC50: 30.2 µM

## CCOP(=O)(OCC)C(CNc1cccc(NC(=S)NC(=O)[C@]2(C)CCC[C@]3(C)c4ccc(C(C)C)cc4CC[C@@H]23)c1)P(=O)(OCC)OCC
[1]
  IC50: 10.3 µM
NCI-H460
  IC50: 13.7 µM
A549
  IC50: 15.4 µM
[2]
  IC50: 16.5 µM
[3]
  IC50: > 50 µM
[4]
  IC50: 11.3 µM

## CCOP(=O)(OCC)C(CNc1ccc(Sc2ccc(NC(=S)NC(=O)[C@]3(C)CCC[C@]4(C)c5ccc(C(C)C)cc5CC[C@@H]34)cc2)cc1)P(=O)(OCC)OCC
[1]
  IC50: 39.2 µM
NCI-H460
  IC50: 40.9 µM
A549
  IC50: 38.8 µM
[2]
  IC50: 40.9 µM
[3]
  IC50: 1.01 µM
[4]
  IC50: 34.1 µM

## CCOP(=O)(OCC)C(CNc1ccc(Oc2ccc(NC(=S)NC(=O)[C@]3(C)CCC[C@]4(C)c5ccc(C(C)C)cc5CC[C@@H]34)cc2)cc1)P(=O)(OCC)OCC
[1]
  IC50: 31.3 µM
NCI-H460
  IC50: 38.2 µM
A549
  IC50: 20 µM
[2]
  IC50: 58.9 µM
[3]
  IC50: 40.9 µM
[4]
  IC50: 44.6 µM

## CCOP(=O)(OCC)C(CNc1cc(Cl)c(NC(=S)NC(=O)[C@]2(C)CCC[C@]3(C)c4ccc(C(C)C)cc4CC[C@@H]23)cc1Cl)P(=O)(OCC)OCC
[1]
  IC50: 24.6 µM
NCI-H460
  IC50: 24 µM
A549
  IC50: 16.4 µM
[2]
  IC50: 22.1 µM
[3]
  IC50: > 50 µM
[4]
  IC50: 20.2 µM

## CCOP(=O)(OCC)C(CNc1ccccc1NC(=S)NC(=O)[C@]1(C)CCC[C@]2(C)c3ccc(C(C)C)cc3CC[C@@H]12)P(=O)(OCC)OCC
[1]
  IC50: 12.5 µM
NCI-H460
  IC50: 13.9 µM
A549
  IC50: 15 µM
[2]
  IC50: 16.5 µM
[3]
  IC50: 15.3 µM
[4]
  IC50: 11.4 µM
